Test results as given in patent US7781644B2, “Arabidosis AtLEJ1 gene involved in inhibiting biosynthesis of jasmonic acid and ethylene and method for producing male-sterile plant using the same” (Korea University Industry and Academy Cooperation Foundation, priority 2006, dated 2010).

Legend:
[1] = system: male-sterile AtLEJ1-overexpressed plant; assay: Restoration of male-sterile AtLEJ1-overexpressed plant to fertile phenotype by hormone treatment of flower bud cluster; format: in vivo, Arabidopsis
Description: First, a flower bud cluster of the AtLEJ1-overexpressed plant was treated with 500 μM jasmonic acid. For a negative control, non-treatment or water alone, was provided.
(§1) The flowers obtained day 2 after treatment with jasmonic acid were embedded in paraffin (Paraplast) and then stained with phloroglucinol for microscopic observation.

[2] = system: endothecium cells of stamens of the AtLEJ1-overexpressed plant; assay: Phloroglucinol staining of paraffin sections for lignification of endothecium cells of stamens after hormone treatment; format: in vivo, Arabidopsis
From the text: In order to examine the developmental process of anthers at the cell level, flowers of the wild-type and the AtLEJ1-overexpressed plant were dipped in a fixing solution, dehydrated with a series of ethanol solutions, and embedded in paraffin (Paraplast), followed by microtome section at 8 μm. The sections were stained with 2% phloroglucinol to visualize the lignification of the endothecium cells, known to play an important role in anther dehiscence, and were washed with 9N HCl.
as §1

NC1(C(=O)O)CC1 [ACC, 1-aminocyclopropane-1-carboxylic acid]
restoration to a fertile phenotype ([1]; treatment with 50 mM ACC (FIG. 12)): restored to a fertile phenotype | restoration to a fertile phenotype ([1]; treatment with 500 mM ACC (FIG. 12)): restored to a fertile phenotype | lignification of endothecium cells of stamens ([2]; ACC-treated plant, 50 mM or 500 mM (FIG. 13)): Lignification was also found

CC/C=C\C[C@H]1C(=O)CC[C@@H]1CC(=O)O [jasmonic acid]
restoration to a fertile phenotype ([1]; 500 μM jasmonic acid on flower bud cluster, one week after treatment, control remained sterile (FIG. 10)): at least partly, restored to a fertile phenotype | anther dehiscence (microscopic observation of treated flowers) ([1]; 500 μM jasmonic acid, day 2 after treatment): observed to enter anther dehiscence | lignification of endothecium cells of stamens (phloroglucinol staining) ([2]; 500 μM jasmonic acid, flowers obtained day 2 after treatment (FIG. 11)): lignified
